Assay results reported in the NIST ThermoML archive (doi:10.1021/acs.jced.5b00242).

Tests used:
[1] = xn = mol fraction of the nth substance listed; conditions: 101 kPa, Liquid; for viscosity: Stabinger Viscometer; for mass density: Vibrating tube method
[2] = refractive index (Na D-line) (dimensionless); xn = mol fraction of the nth substance listed; conditions: 101 kPa, Liquid, Standard Abbe refractometry

CCn1cc[n+](C)c1.O=C([O-])[C@@H]1CCCN1 [1-ethyl-3-methyl-1H-imidazolium L-prolinate] + CCn1cc[n+](C)c1.N#C[C-](C#N)C#N
Conditions	mass density, [1] [kg/m3]	refractive index, [2]	viscosity, [1] [mPa·s]
293.15 K, x2 = 0	1145.9	1.52291	1928.4
293.15 K, x2 = 0.2501	1131.7	1.52057	731.38
293.15 K, x2 = 0.5002	1116.4	1.5191	183.74
293.15 K, x2 = 0.7501	1100.6	1.51665	49.1
298.15 K, x2 = 0	1142.8	1.52151	1194.6
298.15 K, x2 = 0.2501	1128.4	1.51913	474.82
298.15 K, x2 = 0.5002	1113.1	1.5176	131.11
298.15 K, x2 = 0.7501	1097.2	1.51508	38.6
303.15 K, x2 = 0	1139.6	1.52009	771.51
303.15 K, x2 = 0.2501	1125.1	1.51769	320.94
303.15 K, x2 = 0.5002	1109.8	1.51611	96.6
303.15 K, x2 = 0.7501	1093.8	1.51349	30.96
308.15 K, x2 = 0	1136.4	1.5187	517.61
308.15 K, x2 = 0.2501	1121.8	1.51622	224.85
308.15 K, x2 = 0.5002	1106.6	1.5146	73.15
308.15 K, x2 = 0.7501	1090.4	1.5119	25.29
313.15 K, x2 = 0	1133.2	1.51731	359.21
313.15 K, x2 = 0.2501	1118.7	1.51477	162.54
313.15 K, x2 = 0.5002	1103.3	1.51306	56.72
313.15 K, x2 = 0.7501	1087	1.51033	21
318.15 K, x2 = 0	1130.1	1.51591	256.92
318.15 K, x2 = 0.2501	1115.5	1.51333	120.81
318.15 K, x2 = 0.5002	1100.1	1.51153	44.93
318.15 K, x2 = 0.7501	1083.7	1.50875	17.68
323.15 K, x2 = 0	1127.1	1.51454	188.66
323.15 K, x2 = 0.2501	1112.4	1.51191	92
323.15 K, x2 = 0.5002	1096.8	1.51006	36.25
323.15 K, x2 = 0.7501	1080.3	1.50717	15.08
328.15 K, x2 = 0	1124	1.51315	141.76
328.15 K, x2 = 0.2501	1109.3	1.51046	71.61
328.15 K, x2 = 0.5002	1093.6	1.50858	29.73
328.15 K, x2 = 0.7501	1077	1.50561	13
333.15 K, x2 = 0	1121	1.51177	108.85
333.15 K, x2 = 0.2501	1106.2	1.50899	56.8
333.15 K, x2 = 0.5002	1090.4	1.5071	24.75
333.15 K, x2 = 0.7501	1073.6	1.504	11.32
338.15 K, x2 = 0	1118	1.51035	85.12
338.15 K, x2 = 0.2501	1103.1	1.50752	45.83
338.15 K, x2 = 0.5002	1087.2	1.50564	20.87
338.15 K, x2 = 0.7501	1070.3	1.50249	9.95
343.15 K, x2 = 0	1115	1.50897	67.69
343.15 K, x2 = 0.2501	1100	1.50611	37.55
343.15 K, x2 = 0.5002	1084	1.50412	17.8
343.15 K, x2 = 0.7501	1067	1.50096	8.82
348.15 K, x2 = 0	1112	1.50757	54.73
348.15 K, x2 = 0.2501	1096.9	1.50461	31.2
348.15 K, x2 = 0.5002	1080.8	1.50269	15.35
348.15 K, x2 = 0.7501	1063.8	1.49941	7.87
353.15 K, x2 = 0	1109.1	1.5062	44.89
353.15 K, x2 = 0.2501	1093.8	1.50319	26.24
353.15 K, x2 = 0.5002	1077.7	1.50126	13.37
353.15 K, x2 = 0.7501	1060.5	1.49791	7.07
